Measurements published in ChEMBL document CHEMBL1140513, “Heteroatom-linked indanylpyrazines are corticotropin releasing factor type-1 receptor antagonists” (Bioorg Med Chem Lett, 2007).

molecular target: T1, Corticotropin-releasing factor receptor 1 (Homo sapiens, UniProt P34998); experiment: Displacement of [125I]Tyr-o-CRF from CRF1 receptor in IMR32 cells; type: cell-based, IMR-32
T1 sequence (P34998 whole entry): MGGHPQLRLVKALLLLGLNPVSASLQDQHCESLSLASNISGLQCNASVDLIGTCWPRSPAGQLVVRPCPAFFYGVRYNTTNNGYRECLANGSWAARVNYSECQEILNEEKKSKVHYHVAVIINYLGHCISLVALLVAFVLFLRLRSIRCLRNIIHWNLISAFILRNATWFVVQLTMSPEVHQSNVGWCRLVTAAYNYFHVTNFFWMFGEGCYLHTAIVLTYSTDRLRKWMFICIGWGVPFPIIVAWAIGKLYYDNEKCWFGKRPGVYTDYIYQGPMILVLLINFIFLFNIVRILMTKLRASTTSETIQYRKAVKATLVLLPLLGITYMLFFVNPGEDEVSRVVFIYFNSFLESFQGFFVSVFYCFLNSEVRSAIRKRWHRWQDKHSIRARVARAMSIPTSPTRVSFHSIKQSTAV

| SMILES | Ki |
| --- | --- |
| CCCN(CCC)c1nc(CC)c(Oc2cc(C)ccn2)nc1CC | 711 nM |
| CCO[C@H]1Cc2ccccc2[C@@H]1Nc1nc(CC)c(Oc2cc(C)ccn2)nc1CC | 5470 nM |
| CCOCC(Nc1nc(CC)c(Oc2cc(C)ccn2)nc1CC)c1ccccc1 (centres undefined) | 384 nM |
| CCO[C@H]1Cc2ccccc2[C@H]1Nc1nc(CC)c(Oc2cccc(C)n2)nc1CC | 472 nM |
| CCc1nc(NC(CC)CC)c(CC)nc1Nc1ccccn1 | > 10000 nM |
| CCc1nc(Oc2cc(C)ccn2)c(CC)nc1NC(CC)CC | > 10000 nM |
| CCCO[C@H]1Cc2ccccc2[C@H]1Nc1nc(CC)c(Oc2cc(C)ccn2)nc1CC | 30 nM |
| CCO[C@@H]1Cc2ccccc2[C@@H]1Nc1nc(CC)c(Oc2cc(C)ccn2)nc1CC | > 10000 nM |
| CCO[C@H]1Cc2ccccc2[C@H]1Nc1nc(CC)c(Oc2cc(C)ccn2)nc1CC | 35 nM |
| CCc1nc(NC(CC)CC)c(CC)nc1Nc1cccc(C)n1 | 3380 nM |
| CCc1nc(NC(CC)CC)c(CC)nc1Nc1ncc(Cl)cc1Cl | 115 nM |
| CCc1nc(N[C@@H]2c3ccccc3C[C@@H]2OCCF)c(CC)nc1Nc1ncc(Cl)cc1Cl | 1730 nM |
| CCc1nc(NC(CC)CC)c(CC)nc1Nc1ccc([N+](=O)[O-])cn1 | > 10000 nM |
| CCc1nc(Oc2cc(C)ccn2)c(CC)nc1N[C@H]1c2ccccc2C[C@H]1O | > 10000 nM |
| CCO[C@H]1Cc2ccccc2[C@H]1Nc1nc(CC)c(Oc2ncccc2C)nc1CC | 509 nM |
| CCc1nc(Oc2cc(C)ccn2)c(CC)nc1N[C@@H]1c2ccccc2C[C@@H]1OC(C)=O | 2020 nM |
| CCO[C@@H]1Cc2ccccc2[C@H]1Nc1nc(CC)c(Oc2cc(C)ccn2)nc1CC | > 10000 nM |
| CCc1nc(NC(CC)c2ccccc2)c(CC)nc1Nc1ncc(Cl)cc1Cl (centres undefined) | > 10000 nM |
| CCc1nc(NC(CC)CC)c(CC)nc1Nc1ccc(Cl)cc1Cl | > 10000 nM |
